According to patent publication EP1561465A2, “Methods of use of fluoroquinolone compounds against bacteria” (LG Life Sciences, Ltd., priority 1999, dated 2001):
Converted amounts (≈) assume the structure as drawn. Where two headings read alike, the source gives them in different places.

What was measured:
Enterobacter spp. = test: MIC by agar dilution (NCCLS), 322 nosocomial Gram negative isolates, Athens 1998; assay type: cell-based
Aeromonas spp. = test: MIC by agar dilution (NCCLS M7-A4), 288 enteropathogenic isolates, gemifloxacin and 15 other antimicrobials; assay type: cell-based; conditions: Aeromonas spp. N= 16
Shigella spp. = test: as above; assay type: cell-based; conditions: for MIC: Shigella
Procedure: [A. hydrophila (12), and A. sobria (4)], and 91 Campylobacter jejuni. […] The strains were stored in skimmed-milk at -80 °C until studied.
The plates were incubated aerobically at 35 °C for 24 h, except for Campylobacter jejuni, where a microaerophilic atmosphere was obtained by using Campy Pack (Becton Dickinson, Cockeysville, MD, USA), and incubation was for 48 h. All organisms were tested with an inoculum of ≅ 10^4 cfu/spot. MICs were defined as the lower antibiotic concentration with no visible growth.

Hafnia alvei = test: as above; assay type: cell-based; conditions: for MIC: Hafnia alvei N= 32
Salmonella spp. = test: as above; assay type: cell-based; conditions: for MIC: Salmonella
Campylobacter jejuni = test: as above
Yersinia enterocolitica = test: as above; assay type: cell-based; conditions: for MIC: Yersinia enterocolitica N= 22
Streptococcus pneumoniae = test: MIC by E-test (broth microdilution for gemifloxacin), 107 pneumococcal carrier isolates, Athens 1998; assay type: cell-based; conditions: Streptococcus pneumoniae, E-test; for MIC50: read-out: MIC50; for MIC90: read-out: MIC90
Procedure: Susceptibility testing was performed by agar dilution or epsilometer method (E-test), as recommended by the NCCLS. […] The susceptibility profiles of the strains were assessed using the Epsilometer method (E-test). The isolates were subdivided into two groups according to their penicillin susceptibility patterns (penicillin-susceptible and penicillin-intermediate.

Staphylococcus aureus = test: MIC by agar macrodilution (NCCLS), 373 Gram positive isolates, Athens 1998; assay type: cell-based; conditions: Methicillin-susceptible Staphylococcus aureus (n = 85)
[1] = 24 h, read-out: MIC (mg/L) Range
[2] = Penicillin-intermediate S. pneumoniae (n = 24)
[3] = Penicillin-susceptible S. pneumoniae (n = 107)

In the case of `CC(C)(O/N=C(\C(=O)N[C@@H]1C(=O)N2C(C(=O)[O-])=C(C[n+]3ccccc3)CS[C@H]12)c1csc(N)n1)C(=O)O` [Cetfazidime], the MIC50 (Enterobacter spp.; Enterobacter) is reported as 1 µg/mL, the MIC90 (Enterobacter spp.; Enterobacter) is reported as over 64 µg/mL and the “MIC distribution (µg/ml) 0.06” value (Enterobacter spp.; {}) is reported as 1. The “MIC distribution (µg/ml) 0.25” value (Enterobacter spp.; {}) was 16, the “MIC distribution (µg/ml) 0.5” value (Enterobacter spp.; {}) was 3 and the “MIC distribution (µg/ml) 1” value (Enterobacter spp.; {}) was 2. For the same molecule, the “MIC distribution (µg/ml) 2” value (Enterobacter spp.; {}) was 1, the “MIC distribution (µg/ml) 4” value (Enterobacter spp.; {}) was 0 and the “MIC distribution (µg/ml) 8” value (Enterobacter spp.; {}) was 2. For the same molecule, the “MIC distribution (µg/ml) 16” value (Enterobacter spp.; {}) was 6, the “MIC distribution (μg/ml) 32” value (Enterobacter spp.; {}) was 3 and the “MIC distribution (μg/ml) 64” value (Enterobacter spp.; {}) was 2.
With `C[C@H]1c2cccc(O)c2C(=O)C2=C(O)[C@]3(O)C(=O)C(C(N)=O)=C(O)[C@@H](N(C)C)[C@@H]3[C@@H](O)[C@@H]21` [Doxycycline, doxycycline] the “MIC (mg/L) Range” value (Aeromonas spp.) was 0.25 to 4 mg/L, the MIC (Aeromonas spp.; read-out: MIC (mg/L) 50%) was 0.5 mg/L (≈ 1.13 µM) and the MIC (Aeromonas spp.; read-out: MIC (mg/L) 90%) was 2 mg/L (≈ 4.5 µM). For the same molecule, the “Rates of non-susceptible microorganisms” value (Shigella spp.; Shigella spp.) was 43%, the MIC (Shigella spp.; [1]) was 0.5 to 32 mg/L (≈ 1.13 to 72 µM) and the MIC (Shigella spp.; read-out: MIC (mg/L) 50%) was 16 mg/L (≈ 36 µM). The MIC (Shigella spp.; read-out: MIC (mg/L) 90%) was 32 mg/L (≈ 72 µM), the MIC (Hafnia alvei; [1]) was 1 to 16 mg/L (≈ 2.25 to 36 µM) and the “Rates of non-susceptible microorganisms” value (Hafnia alvei; Hafnia alvei) was 22%. The MIC (Hafnia alvei; read-out: MIC (mg/L) 50%) was 2 mg/L (≈ 4.5 µM), the MIC (Hafnia alvei; read-out: MIC (mg/L) 90%) was 8 mg/L (≈ 18 µM) and the “Rates of non-susceptible microorganisms” value (Salmonella spp.; Salmonella spp.) was 22%. For the same molecule, the “MIC (mg/L) Range” value (Salmonella spp.; Salmonella spp. N= 106) was 1 to 128 mg/L, the MIC (Salmonella spp.; read-out: MIC (mg/L) 50%, Salmonella spp. N= 106) was 2 mg/L (≈ 4.5 µM) and the MIC (Salmonella spp.; read-out: MIC (mg/L) 90%, Salmonella spp. N= 106) was 16 mg/L (≈ 36 µM). The “Rates of non-susceptible microorganisms” value (Campylobacter jejuni; Campylobacter jejuni) was 40%, the “MIC (mg/L) Range” value (Campylobacter jejuni; Campylobacter jejuni N= 91) was 0.06 to 64 mg/L and the MIC (Campylobacter jejuni; Campylobacter jejuni, read-out: MIC (mg/L) 50%) was 16 mg/L (≈ 36 µM). The MIC (Campylobacter jejuni; Campylobacter jejuni, read-out: MIC (mg/L) 90%) was 32 mg/L (≈ 72 µM), the MIC (Yersinia enterocolitica; [1]) was 0.25 to 8 mg/L (≈ 0.563 to 18 µM) and the “Rates of non-susceptible microorganisms” value (Yersinia enterocolitica; Yersinia enterocolitica) was 5%. The MIC (Yersinia enterocolitica; read-out: MIC (mg/L) 50%) was 1 mg/L (≈ 2.25 µM) and the MIC (Yersinia enterocolitica; read-out: MIC (mg/L) 90%) was 2 mg/L (≈ 4.5 µM).
In the case of `CC[C@H]1OC(=O)[C@H](C)[C@@H](O[C@H]2C[C@@](C)(OC)[C@@H](O)[C@H](C)O2)[C@H](C)[C@@H](O[C@@H]2O[C@H](C)C[C@H](N(C)C)[C@H]2O)[C@](C)(OC)C[C@@H](C)C(=O)[C@H](C)[C@@H](O)[C@]1(C)O` [Clarithromycin], the MIC50 (Streptococcus pneumoniae; [2]) is reported as 0.094 µg/mL (≈ 0.126 µM), the MIC90 (Streptococcus pneumoniae; [2]) is reported as at least 256 µg/mL and the MIC50 (Streptococcus pneumoniae; [3]) is reported as 0.094 µg/mL (≈ 0.126 µM). It also gave an MIC90 (Streptococcus pneumoniae; [3]) of 0.38 µg/mL (≈ 0.508 µM), an MIC50 (Staphylococcus aureus; read-out: MIC50) of 0.25 µg/mL (≈ 0.334 µM) and an MIC90 (Staphylococcus aureus; read-out: MIC90) of 1 µg/mL (≈ 1.34 µM).
